# “And” between values parts separate entries of the source, which are not always exact repeats. Identical values can stand only once.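 All cell lines were grown in 96-well plates and treated with compound for 48 hours. Here, GI50 denotes the concentration required for 50% inhibition of growth. TGI is the concentration that stops growth completely.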
# Tests used:
# Experiment in all cases: NCI-60 cell line screen, 48 h
# [1] = tested on: CCRF-CEM leukemia
# [2] = tested on: HCC-2998 colon
# [3] = tested on: HL-60(TB) leukemia
# [4] = tested on: HOP-92 NSCLC
# [5] = tested on: NCI-H226 lung
# [6] = tested on: RXF 393 renal
# [7] = tested on: SK-MEL-28 melanoma
# [8] = tested on: SK-MEL-5 melanoma
# [9] = tested on: SR leukemia
# [10] = tested on: UACC-62 melanoma
Compound,TGI [1] [µM],TGI [2],TGI [3],TGI [4],TGI [5],TGI [6],TGI [7],TGI [8],TGI [9],TGI [10],GI50 [1] [µM],GI50 [2] [µM],GI50 [3],GI50 [4] [µM],GI50 [5] [µM],GI50 [6] [µM],GI50 [7] [µM],GI50 [8] [µM],GI50 [9] [µM],GI50 [10]
COc1ccc(CSC2=C(C#N)C(=O)NC3(CCCCC3)S2)cc1,24.7,62.4 µM,19 µM,> 100 µM,> 100 µM,> 73.3 µM,> 100 µM,> 100 µM,> 100 µM,> 100 µM,,,,,,,,,,
CC(/C=C/C(=O)c1sc(C(N)=S)nc1C)=C\c1ccccc1,> 100,> 100 µM,> 100 µM,> 100 µM,> 100 µM,> 100 µM,> 100 µM,> 100 µM,98 µM,> 100 µM,,,,,,,,,,
CCCCNS(=O)(=O)c1ccc(-c2ccc3c(c2)-c2ccc(S(=O)(=O)NCCCC)cc2S3(=O)=O)cc1,> 100,> 100 µM,> 100 µM,41.5 µM,32 µM,30.6 µM,29.7 µM,28.6 µM,> 100 µM,34.3 µM,,,,,,,,,,
CCCCCCC(=O)C/C(CCC(=O)N(Cc1ccccc1)Cc1ccccc1)=N\NC(N)=O,> 100,> 100 µM,> 100 µM,> 100 µM,> 100 µM,> 100 µM,> 100 µM,> 100 µM,> 100 µM,> 100 µM,,,,,,,,,,
COc1ccc2nc(C)cc(Sc3nc4ccccc4s3)c2c1,2.65,2.54 µM,2.63 µM,6.25 µM,4.1 µM,8.19 µM,9.89 µM,13.5 µM,2.46 µM,7.51 µM,0.377,0.0938,0.533 µM,0.475,0.728,2.63,2.45,2.88,0.432,0.717 µM
CN1CCN(C(=O)c2ccc(NC(=O)Nc3ccc(-c4nc(N5CCOCC5)c5cccn5n4)cc3)cc2)CC1,5.67,11.8 µM,5.21 µM,0.0759 µM,0.345 µM,0.175 µM,0.77 µM,0.394 µM,8.7 µM,0.189 µM,0.0473,0.0352,0.101 µM,0.0193,0.0306,0.0307,0.0465,0.0803,0.0465,0.034 µM
COc1ccc(N2C(=O)[C@@H](N=[N+]=[N-])[C@@H]2[C@H]2COC(C)(C)O2)cc1,> 100,> 100 µM,> 100 µM,> 100 µM,> 100 µM,> 100 µM,> 100 µM,> 100 µM,> 100 µM,> 100 µM,,,,,,,,,,
COc1cc(C)cc(C(=O)/C=C/c2ccccc2)c1O,84.1,38 µM,> 100 µM,31.2 µM,73.9 µM,35.7 µM,50.7 µM,40.4 µM,77.6 µM,33.6 µM,,,,,,,,,,
CC(C)C[C@H](NC(=O)Cn1cccc(CNC(=O)c2ccccc2)c1=O)B(O)O,> 20.1,2.57 µM,> 100 µM,4.61 µM,0.457 µM,1.1 µM,13 µM,0.842 µM,> 100 µM,3.54 µM,0.374,0.893,0.653 µM,0.638,0.202,0.316,0.207,0.158,0.304,0.486 µM
O=C1NC(=O)C(c2cccc(Cl)c2)=C1Nc1ccc(Cl)c(C(=O)O)c1,> 25,> 25 µM,> 25 µM,> 25 µM,> 25 µM,> 25 µM,> 25 µM,> 25 µM,> 25 µM,> 25 µM,> 25,> 25,> 25 µM,> 25,> 25,> 25,> 25,> 25,> 25,> 25 µM
Cc1ccc(SSCC(O)C(O)CSSc2ccc(C)cc2)cc1 (configuration not stated),4.08,28.3 µM and 28.9 µM,3.1 µM and 25.6 µM,26 µM and 31.4 µM,30.4 µM and 29 µM,16.9 µM and 16.1 µM,26.8 µM and 28.6 µM,25.6 µM and 19.9 µM,15.7 µM and 23.7 µM,17.2 µM and 31 µM,,,1.01 µM and 4.6 µM,,,,,,,4.81 µM and 15.8 µM
COc1cc2c(cc1OC)C(C(CBr)CBr)N(C1CCCC1)CC2 (configuration not stated),> 100,> 100 µM,> 100 µM,> 100 µM,> 100 µM,> 100 µM,> 100 µM,> 100 µM,> 100 µM,> 100 µM,,,,,,,,,,
CCN1CCN(c2cc(C(=O)Nc3cccc(Nc4ccc5c(OC)cccc5n4)c3)cc(C(F)(F)F)c2)CC1,2.06,2.01 µM,11.4 µM,4.66 µM,25.4 µM,4.86 µM,2.2 µM,5.54 µM,11.7 µM,5.77 µM,0.758,0.72,3.82 µM,1.26,2.85,0.918,0.846,1.55,0.883,1.5 µM

# From PubChem BioAssay (NCI)
